Experimental data taken from patent US7666639B2, “Plant deoxyribonucleoside kinase enzymes and their use” (priority 2002, dated 2010).

Tested on: N-terminally deleted tomato dNK enzyme (TOM-ΔNdCK/dGK)
Assay: Deoxyribonucleoside kinase activity in extract of KY895 transformed with pGEX-2T-TOM-ΔNdCK/dGK
Assay type: biochemical, Lycopersicum esculentum
Conditions: pGEX-2T-TOM-ΔNdCK/dGK
Description: The E. coli strain KY895 (F^−, tdk-1, ilv) [Knecht W, Munch-Petersen B and Piskur J: Identification of residues involved in the specificity and regulation of the highly efficient multisubstrate deoxyribonucleoside kinase from Drosophila melanogaster; J. Mol. Biol. 2000 301 827-837] was transformed by various expression plasmids using standard techniques. Transformed KY895 strains were grown to an OD600 nm of 0.5-0.6 in LB/Ampicillin (100 μg/ml) medium at 37° C., and protein expression was induced by addition of 100 μM IPTG. The cells were further grown for 4 hours at 25° C. and subsequently harvested by centrifugation.
Pellets were stored at −80° C. until activity testing. Pellets were submitted to brief sonification in extraction buffer (50 mM Tris/HCl pH 7.5, 1 mM DTT, 10% (v/v) glycerol, 1% (v/v) Triton X-100, protease inhibitor cocktail (Complete™ from Roche Diagnostics).
Deoxyribonucleoside kinase activities were determined in the KY895 extracts by initial velocity measurements based on four time samples by the DE-81 filter paper assay using tritium-labelled nucleoside substrates. 4 to 20 μg extracts were used in the assays. The assay was done as described by Munch-Petersen et al. [Munch-Petersen, B., Knecht, W, Lenz, C., Sondergaard, L. & Piskur, J: Functional expression of a multisubstrate deoxyribonucleoside kinase from Drosophila melanogaster and its C-terminal deletion mutants; J. Biol. Chem. 2000 275 6673-6679].
The protein concentration was determined according to Bradford with BSA as standard protein [Bradford M M: A rapid and sensitive method for the quantitation of microgram quantities of protein utilizing the principle of protein-dye binding; Anal. Biochem. 1976 72 248-254]. SDS-PAGE was done according to the procedure of Laemmli [Laemmli U K: Cleavage of structural proteins during the assembly of the head of bacteriophage T4; Nature 1970 227 680-685], and proteins were visualized by Coomassie staining to verify recombinant protein expression.
The four natural deoxyribonucleosides were tested at a fixed concentration of 100 μM. The highest specific activity in each extract was set to 100%.

ability to phosphorylate the deoxyribonucleoside (in words)	Structure (SMILES)
able to phosphorylate	Nc1ncnc2c1ncn2[C@H]1C[C@H](O)[C@@H](CO)O1 [dAdo, deoxyadenosine]
able to phosphorylate	Nc1ccn([C@H]2C[C@H](O)[C@@H](CO)O2)c(=O)n1 [dCyd, deoxycytidine]
